Test [1] relates to H1-HA–reactive T cell clones from CD4^+ naive T cell compartment. It is filed as cell-based, human.
Test [2] relates to H1-HA–specific memory CD4^+ T cell clones, donor HD1. Briefly: Functional avidity of memory T cell clones with anti-head or anti-stem EBV-B cell clones as APCs. The conditions noted are these: HLA-DR–restricted clones specific for the peptide. It is filed as cell-based, human.
The test system of test [3] is HLA-DR, HLA-DQ, HLA-DP. Put plainly: MHC-II restriction of T cell clones with blocking antibodies. Type of test: cell-based, human.
Test [4] concerns the target HLA-DRB1*08:01 (Homo sapiens, UniProt P01903+P01911, A100R/A103L/A169T/D86S/F76Y/H45Y/I96F/K41T/L162R/M171V/P40S/Q125H/Q178H/Q39Y/Q99D/R218S/R42G/S66Y/V115G/W38E). It is filed as binding. To be noted: pH 7.
The subject of test [5] is H1-HA–reactive T cell clones from CD4^+ memory (Tcm, Tem, or cTfh) compartment, donor HD1. It is filed as cell-based, human.
Test [6] has as its system MHC-II molecules. Put plainly: MS-based MHC-II peptidomics, H1-HA–pulsed anti-head and anti-stem EBV-B cell clones of donor HD1. To be noted: 401–420: anti-stem clone; 416–430 and 386–400: both anti-head and anti-stem clones; union of n = 3. The arrangement: species or system human.
In test [7] the test system is H1-HA–specific memory CD4^+ T cell clones, donor HD1. It is filed as cell-based, human. To be noted: for functional avidity for peptide, memory T cell clone specific for the peptide: donor HD1 memory clones M1 (411–430), M2 (396–410), M3 (526–540), M4 (121–140), M5 (186–200), M6 (446–460), autologous monocytes; for functional avidity for peptide, memory T cell clone specific for the peptide / functional avidity for H1-HA protein, memory T cell clone specific for the peptide: from EC50, day 3; for functional avidity for H1-HA protein, memory T cell clone specific for the peptide: donor HD1 memory clones M1, M4, M5, M6; for fold lower functional avidity for H1-HA protein, memory T cell clone specific for the peptide: clones M2 (396–410) and M3 (526–540), had avidity for peptide comparable to clone M1.

The subject of test [8] is H1-HA–specific naive CD4^+ T cell clones, donor HD1. It is filed as cell-based, human. To be noted: for fold lower avidity for protein, naive T cell clone specific for the peptide: clones N2 (521–540) and N3 (536–555); for functional avidity for peptide, naive T cell clone specific for the peptide: donor HD1 naive clones N1 (411–430), N2 (521–540), N3 (536–555), autologous monocytes, from EC50, day 3.

For test [9], the system named is naive and memory CD4^+ T cells. Briefly: T cell library screening and epitope mapping, naive and memory CD4^+ T cells. Type of test: cell-based, human. The conditions noted are these: memory library.

In the case of AGAKSFYKNLIWLVKKGNSY, the “N sister clones (epitope-specific naive clones per TCR Vβ clonotype)” value in test [1] was found to be 1.
Take EDKHNGKLCKLRGVAPLHLG: the “N sister clones (epitope-specific naive clones per TCR Vβ clonotype)” value in [1] came to 1.
EGRMNYYWTLVEPGDKITFE: in [2], the “activation, proliferation and functional avidity with anti-stem compared with anti-head B cells as APCs” value is “much lower activation and proliferation”; the “reduction of functional avidity with anti-stem compared with anti-head B cells as APCs” value stood at 10 fold. For the same sequence, the “MHC-II restriction of T cell clones specific for the peptide” value (from here on “MHC-II restriction”) in test [3] is recorded as “HLA-DR restricted”.
For the sequence EKMNTQFTAVGKEFNHLEKR, the “binding affinity to HLA-DRB1*08:01 relative to subdominant peptides” value in test [4] was “comparable to that of subdominant peptides”. Further, in test [5] (88 distinct clonotypes in total), the “number of different TCR Vβ clonotypes specific for the peptide” value is 16 clonotypes. Further, in test [5] (274 clones sequenced), the “number of sequenced T cell clones specific for the peptide” value is listed as 62 clones. Moreover, the “detection of H1-HA–derived peptides of the region by MHC-II immunopeptidomics, HD1 B cell clones” value (from here on “detection”) in test [6] is on record as “did not detect any”. Besides, in test [2], the “activation, proliferation and functional avidity with anti-stem compared with anti-head B cells as APCs” value was “much lower activation and proliferation”; the “reduction of functional avidity with anti-stem compared with anti-head B cells as APCs” value was determined as 10 fold. For the same sequence, the “MHC-II restriction” value in test [3] was “HLA-DR restricted”.
As for GFLDIWTYNAELLVL, in test [1], the “N sister clones (epitope-specific naive clones per TCR Vβ clonotype)” value is reported as 1.
On to GFLDIWTYNAELLVLLENER, for which, in test [1], the “N sister clones (epitope-specific naive clones per TCR Vβ clonotype)” value was 1.
For the sequence GKLCKLRGVAPLHLG, the “N sister clones (epitope-specific naive clones per TCR Vβ clonotype)” value in test [1] is reported as 1.
As for HLEKRIENLNKKVDD, the “detection” value in test [6] is “detected by MHC-II immunopeptidomics on both anti-head and anti-stem B cell clones”. For the same sequence, the “activation, proliferation and functional avidity with anti-stem compared with anti-head B cells as APCs” value in [2] is recorded as “comparable functional avidity”. Also, the “MHC-II restriction” value in [3] was “HLA-DR–restricted”.
As for KGKEVLVLWGIHHPS, in [7], the “functional avidity for peptide, memory T cell clone specific for the peptide” value is given as “functional avidity lower than the median of the distribution” and the “functional avidity for H1-HA protein, memory T cell clone specific for the peptide” value is reported as “functional avidity lower than the median of the distribution”. Moreover, the “MHC-II restriction” value in test [3] is given as “HLA-DQ”.
Turning to KLESTRIYQILAIYSTVASS, in test [8], the “fold lower avidity for protein, naive T cell clone specific for the peptide” value is 100 fold and the “functional avidity for peptide, naive T cell clone specific for the peptide” value is reported as “high avidity”.
Take LENERTLDYHDSNVK: in [7], the “functional avidity for peptide, memory T cell clone specific for the peptide” value was “functional avidity lower than the median of the distribution” and the “functional avidity for H1-HA protein, memory T cell clone specific for the peptide” value was “functional avidity lower than the median of the distribution”. Besides, the “MHC-II restriction” value in [3] was “HLA-DQ”.
Take QNAIDEITNKVNSVI: in test [6], the “detection” value is “detected by MHC-II immunopeptidomics on both anti-head and anti-stem B cell clones”. Also, in test [2], the “activation, proliferation and functional avidity with anti-stem compared with anti-head B cells as APCs” value is “comparable functional avidity”. In addition, the “MHC-II restriction” value in [3] was “HLA-DR–restricted”.
In the case of RIYQILAIYSTVASS, in test [7], the “fold lower functional avidity for H1-HA protein, memory T cell clone specific for the peptide” value is given as 1,000 fold and the “functional avidity for peptide, memory T cell clone specific for the peptide” value was “high functional avidity”.
Turning to SRYSKKFKPEIAIRPKVRDQ, in test [1], the “N sister clones (epitope-specific naive clones per TCR Vβ clonotype)” value was found to be 1.
As for TVASSLVLVVSLGAISFWMC, in [8], the “fold lower avidity for protein, naive T cell clone specific for the peptide” value came out at 100 fold and the “functional avidity for peptide, naive T cell clone specific for the peptide” value was “high avidity”. In addition, the “N sister clones (epitope-specific naive clones per TCR Vβ clonotype)” value in test [1] is on record as 1.
Take VNSVIEKMNTQFTAV: the “percentage of immunodominant T cell clones” value in test [9] (donor HD4) amounted to 31.1%. In [7], the “fold lower functional avidity for H1-HA protein, memory T cell clone specific for the peptide” value is listed as 1,000 fold and the “functional avidity for peptide, memory T cell clone specific for the peptide” value was “high functional avidity”.
VVPRYAFAMERNAGSGIIIS: in [9] (donor HD3), the “percentage of immunodominant T cell clones” value is recorded as 24.5%.

(Values after publication PMC7537397, “Deciphering and predicting CD4^+ T cell immunodominance of influenza virus hemagglutinin” (The Journal of Experimental Medicine, 2020).)
